The subject of series [1] is vancomycin-resistant Enterococus faecalis (VRE)(ATCC 51575). In kind it is cell-based, Enterococcus faecalis. More on the design: key to VRE (in vitro activity): peptide concentration in μg/ml (broth dilution assay). The following applies: for VRE MIC: ATCC 51575; for VRE (in vitro activity): Table 9. In a few lines:
(§1)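 First, peptide stocks in 5% DMSO/9% sucrose were quantified and diluted 2-fold over roughly 400-2 μg/ml. Next, overnight cultures were diluted 4000-fold to ~2.5×10^5 cfu/ml and combined with peptide. Minimum inhibitory concentrations followed NCCLS broth macro- or microdilution procedures.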

The test system of the next series is murine red blood cells. The series can be described thus: Red blood cell hemolysis. The following applies: for Hemolysis HD50: red cells of murine. In kind it is cell-based, mouse. In outline: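 Washed murine erythrocytes at 5% in saline with 10% FBS were exposed to serial peptide dilutions for 30 min at 37° C. Supernatant absorbance at 560 nm was read, with saline as 0% and 1% Triton X-100 as 100% hemolysis.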

Series [2] relates to S. aureus (MRSA) ATCC 33591. The class given is cell-based, Staphylococcus aureus. The note with it: for MRSA MIC / S. aureus (MRSA) MIC: ATCC 33591; for MRSA (in vitro activity): Table 9. In outline:
as §1

For another series, the system named is E. coli JM109(DE3). In kind it is cell-based, Escherichia coli. The note with it: JM109. The protocol:
(§2) The antimicrobial activity of the peptides was determined using a broth dilution assay essentially as descried in the guidelines of the National Committee for […] (NCCLS) [National Committee for Clinical Laboratory Standards. Methods for dilution antimicrobial susceptibility tests for bacteria that grow aerobically. Fourth edition. Approved Standard (1997). Document M7-A4. […] The microdilution method has the advantages of requiring less amount of peptide for each assay and the possibility of multiple simultaneous inoculations and was used in most studies. Several of the strains of bacteria tested are further described in Table 3.
(§3) Preparation of peptide solutions. Stock peptide solutions were prepared in 5% DMSO in aq. sucrose (9%). Determination of peptide concentrations was done by quantitative HPLC analysis using known concentrations of internal standards and/or by measuring UV absorption of tryptophane-containing peptide solutions in H2O (λ=280 εTrp: 5690). Serial 2-fold dilutions were made in the above DMSO/aq. sucrose (9%) mixture with concentrations ranging approximately 400-2 μg/ml and aliquots were dispensed in test tubes (100 μl) for the macrodilution test or in microtiter plates (20 μl) for the microdilution assays.
(§4) Inoculum preparation. Overnight cultures of different microorganisms grown in suitable media were diluted 4000 times to an approximate inoculum size of 2.5×10^5 cfu/ml.
(§5) Macrodilution method. Macrodilution methods were performed using procedures similar to those described in the National Committee for Clinical Laboratory Standards. Methods for dilution antimicrobial susceptibility tests for bacteria that grow aerobically. Fourth edition. Approved Standard (1997). Document M7-A4. (NCCLS,Villanova, Pa., 1997). Two ml aliquots of the above inoculum were dispensed to test tubes containing different peptide solutions.
(§6) Microdilution method. Microdilution methods were performed using procedures similar to those described in the National Committee for Clinical Laboratory Standards. Methods for dilution antimicrobial susceptibility tests for bacteria that grow aerobically. Fourth edition. Approved Standard (1997). Document M7-A4.

In series [3] the test system is Streptococcus pneumoniae (ATCC 6301). In kind it is cell-based. The protocol: as §2, §3, §4, §5, §6
Series [4] relates to Bacillus cereus ATCC 11778. In kind it is cell-based. The protocol:
as §2, §3, §4, §5, §6

[5] abbreviates: media a: anti-microbial media-3 (AM-3).

Structures are written as SMILES. Read-outs that look alike come from different tables or passages of the source. Non-standard residues stand in square brackets, D forms with d. Residues, ends and D or L forms follow the SMILES beside them. NMeL = CN[C@@H](CC(C)C)C(=O)O A value given as a limit tells only on which side of the number the result lay.

Regarding `CC(C)C[C@@H](NC(=O)[C@H](Cc1c[nH]c2ccccc12)NC(=O)[C@@H](CC(C)C)NC(=O)[C@H](Cc1c[nH]c2ccccc12)NC(=O)[C@@H](CCCCN)NC(=O)[C@H](CCCCN)NC(=O)[C@H](N)CCCCN)C(=O)N[C@@H](Cc1c[nH]c2ccccc12)C(N)=O` [SEQ ID NO:134, H-KKKWLWLW-NH2] (H-[dK]K[dK]W[dL]W[dL]W-NH2), in series [1], the VRE MIC worked out at 100 µg/mL. In the series with murine red blood cells, this compound yielded a Hemolysis HD50 of 100 µg/mL. The compound also yielded an MRSA MIC in series [2] of 30 µg/mL. Moreover, in the series on E. coli JM109(DE3), the E. coli MIC was found to be 3 µg/mL. In series [3], the S. pneum. MIC was 80 µg/mL. Also, the B. cerius MIC in series [4] came to 19 µg/mL.
Consider `CC(C)C[C@H]1NC(=O)[C@H](Cc2c[nH]c3ccccc23)NC(=O)[C@@H](CO)NC(=O)[C@H](Cc2c[nH]cn2)NC(=O)[C@@H]([C@H](C)O)NC(=O)[C@H](Cc2c[nH]c3ccccc23)NC(=O)[C@@H](CC(C)C)NC(=O)[C@H](Cc2c[nH]c3ccccc23)NC1=O` [SEQ ID NO:6, cyclo-(D-Thr-His-D-Ser-Trp-D-Leu-Trp-D-Leu-Trp)] (cyclo(H[dS]W[dL]W[dL]W[dT])), for which, in series [1], the VRE MIC is 100 µg/mL. Further, the “VRE (in vitro activity)” value in series [1] (media a: AM-3) was determined as 100. Further, the “RBC Hemolysis (HD50)” value with murine red blood cells turned out to be 100. Besides, in series [2], the MRSA MIC stood at 100 µg/mL and the “S. aureus (MRSA) MIC” value is 100 µg/mL. In addition, the “MRSA (in vitro activity)” value in series [2] (setting [5]) is reported as 100. Besides, in the series on E. coli JM109(DE3), the “E. coli MIC” value is 100 µg/mL. In series [3], this compound gave a S. pneum. MIC of 100 µg/mL. Moreover, the B. cerius MIC in series [4] is over 280 µg/mL.
In turn, `CC(C)C[C@H]1NC(=O)[C@H](Cc2c[nH]c3ccccc23)NC(=O)[C@@H](Cc2c[nH]cn2)NC(=O)[C@H](Cc2c[nH]cn2)NC(=O)[C@@H](CO)NC(=O)[C@H](Cc2c[nH]c3ccccc23)NC(=O)[C@@H](CC(C)C)NC(=O)[C@H](Cc2c[nH]c3ccccc23)NC1=O` [SEQ ID NO:15, SHHWLWLW] (cyclo([dS]H[dH]W[dL]W[dL]W)) registered a VRE MIC in series [1] of 50 µg/mL. In addition, the “VRE (in vitro activity)” value in series [1] (media a: AM-3) turned out to be 50. The “RBC Hemolysis (HD50)” value in the series on murine red blood cells was found to be 20. For the same compound, in series [2], the MRSA MIC was determined as 30 µg/mL and the “S. aureus (MRSA) MIC” value worked out at 20 µg/mL. In addition, in series [2] (setting [5]), the “MRSA (in vitro activity)” value came to 30. The “E. coli MIC” value in the series with E. coli JM109(DE3) stood at 100 µg/mL. The compound also had a S. pneum. MIC in series [3] of 40 µg/mL. In series [4], this compound displayed a B. cerius MIC of 11 µg/mL.
For the compound `CC(=O)N[C@H](CCCNC(=N)N)C(=O)N[C@@H](CCCNC(=N)N)C(=O)N[C@H](CCCCN)C(=O)N[C@@H](Cc1c[nH]c2ccccc12)C(=O)N[C@H](CC(C)C)C(=O)N[C@@H](Cc1c[nH]c2ccccc12)C(=O)N[C@H](CC(C)C)C(=O)N[C@@H](Cc1c[nH]c2ccccc12)C(N)=O` [SEQ ID NO:136, Ac-RRKWLWLW-NH2] (Ac-[dR]R[dK]W[dL]W[dL]W-NH2), the VRE MIC in series [1] amounted to 100 µg/mL. This compound also gave a Hemolysis HD50 in the series on murine red blood cells of 100 µg/mL. This compound gave an MRSA MIC in series [2] of 70 µg/mL. For the same compound, in the series on E. coli JM109(DE3), the E. coli MIC came to 6 µg/mL. The same compound yielded a S. pneum. MIC in series [3] of 40 µg/mL. Moreover, in series [4], the B. cerius MIC was determined as 22 µg/mL.
In the case of `CC(C)C[C@@H](N)C(=O)N[C@@H](Cc1c[nH]c2ccccc12)C(=O)N[C@H](CCCNC(=N)N)C(=O)N[C@@H](CCCNC(=N)N)C(=O)N[C@H](CCCCN)C(=O)N[C@@H](Cc1c[nH]c2ccccc12)C(=O)N[C@H](CC(C)C)C(=O)N[C@@H](Cc1c[nH]c2ccccc12)C(N)=O` [SEQ ID NO:137, H-LWRRKWLW-NH2] (H-[dL]W[dR]R[dK]W[dL]W-NH2), the VRE MIC in series [1] amounted to 40 µg/mL. Further, in the series with murine red blood cells, the Hemolysis HD50 amounted to 100 µg/mL. Besides, in series [2], the MRSA MIC amounted to 5 µg/mL. For the same compound, in the series with E. coli JM109(DE3), the E. coli MIC is 4 µg/mL. The compound also registered a S. pneum. MIC in series [3] of 20 µg/mL. For the same compound, the B. cerius MIC in series [4] is 9 µg/mL.
As to `CC(C)C[C@H]1NC(=O)[C@H](Cc2c[nH]c3ccccc23)NC(=O)[C@@H](Cc2c[nH]cn2)NC(=O)[C@H](CCCCN)NC(=O)[C@@H](Cc2c[nH]cn2)NC(=O)[C@H](Cc2c[nH]c3ccccc23)NC(=O)[C@@H](CC(C)C)NC(=O)[C@H](Cc2c[nH]c3ccccc23)NC1=O` [SEQ ID NO:21, cyclo-(D-His-Lys-D-His-Trp-D-Leu-Trp-D-Leu-Trp)] (cyclo(K[dH]W[dL]W[dL]W[dH])), in series [1], the VRE MIC is 16 µg/mL. Moreover, the “VRE (in vitro activity)” value in series [1] (media a: AM-3) amounted to 16. For the same compound, the “RBC Hemolysis (HD50)” value with murine red blood cells is reported as 25. Also, in series [2], the MRSA MIC amounted to 12 µg/mL and the “S. aureus (MRSA) MIC” value came to 12 µg/mL. Further, the “MRSA (in vitro activity)” value in series [2] (setting [5]) was 12. Also, the “E. coli MIC” value with E. coli JM109(DE3) is 15 µg/mL. Further, the S. pneum. MIC in series [3] came out at 19 µg/mL. This compound also gave a B. cerius MIC in series [4] of 4 µg/mL.
In turn, `CC(C)C[C@H]1C(=O)N[C@H](Cc2c[nH]c3ccccc23)C(=O)N(C)[C@@H](CC(C)C)C(=O)N[C@H](Cc2c[nH]c3ccccc23)C(=O)N[C@@H](CCCNC(=N)N)C(=O)N[C@H](CCCNC(=N)N)C(=O)N[C@@H](CCCCN)C(=O)N[C@H](Cc2c[nH]c3ccccc23)C(=O)N1C` [SEQ ID NO:139, c[RRKW^MeLW^MeLW]] (cyclo(R[dR]K[dW][NMeL][dW][NMeL][dW])) showed a VRE MIC in series [1] of 30 µg/mL. The Hemolysis HD50 with murine red blood cells was 100 µg/mL. Also, the MRSA MIC in series [2] is 5 µg/mL. For the same compound, the E. coli MIC with E. coli JM109(DE3) turned out to be 5 µg/mL. In series [3], this compound registered a S. pneum. MIC of 10 µg/mL. For the same compound, the B. cerius MIC in series [4] is 5 µg/mL.
Turning to `CC(C)C[C@@H]1NC(=O)[C@@H](Cc2c[nH]c3ccccc23)NC(=O)[C@H](CCCCN)NC(=O)[C@@H](CCCNC(=N)N)NC(=O)[C@H](CCCCN)NC(=O)[C@@H](Cc2c[nH]c3ccccc23)NC(=O)[C@H](CC(C)C)NC(=O)[C@@H](Cc2c[nH]cn2)NC1=O` [SEQ ID NO:101, [KRKWLHLW]] (cyclo(K[dR]K[dW]L[dH]L[dW])), the VRE MIC in series [1] was 40 µg/mL. For the same compound, in series [1] (media a: AM-3), the “VRE (in vitro activity)” value turned out to be 40. Besides, in the series with murine red blood cells, the “RBC Hemolysis (HD50)” value was 100 and the Hemolysis HD50 stood at 100 µg/mL. In series [2], this compound displayed an MRSA MIC of 40 µg/mL. Besides, the “MRSA (in vitro activity)” value in series [2] (setting [5]) was 40. The same compound showed an E. coli MIC with E. coli JM109(DE3) of 12 µg/mL. In addition, the S. pneum. MIC in series [3] was 80 µg/mL. In addition, the B. cerius MIC in series [4] amounted to 80 µg/mL.
Compound `CC(C)C[C@H]1NC(=O)[C@H](CO)NC(=O)[C@@H](CCCCN)NC(=O)[C@H](Cc2c[nH]c3ccccc23)NC(=O)[C@@H](CC(C)C)NC(=O)[C@H](Cc2c[nH]c3ccccc23)NC1=O` [SEQ ID NO:28, cyclo-(D-Lys-Ser-D-Leu-Trp-D-Leu-Trp)] (cyclo(S[dL]W[dL]W[dK])) displayed a VRE MIC in series [1] of 100 µg/mL. The “VRE (in vitro activity)” value in series [1] (media c: Brain Heart Infusion (BHI)) is given as 100. In addition, in the series with murine red blood cells, the “RBC Hemolysis (HD50)” value came out at 90. Further, in series [2], the MRSA MIC stood at 100 µg/mL and the “S. aureus (MRSA) MIC” value is 75 µg/mL. The “MRSA (in vitro activity)” value in series [2] (media b: cation adjusted Meuller Hinton broth (MHBII)) came to 100. Besides, the “E. coli MIC” value in the series with E. coli JM109(DE3) is 100 µg/mL. Further, the S. pneum. MIC in series [3] is 20 µg/mL. The B. cerius MIC in series [4] amounted to 15 µg/mL.

The values above are taken from patent US20050107289A1, “Anti-microbial peptides and compositions” (priority 2001, published 2005).
